# Assay results as given in patent US20190175551A1, “MEDICINE FOR TREATING RENAL DISEASE” (Daiichi Sankyo Company, Limited, priority 2016, published 2019).
# Tests used:
# [1] = system: DOCA/sodium chloride-loaded hypertension model; experiment: Ameliorative effect on a renal disorder in the DOCA/sodium chloride-loaded hypertension model (kidney histopathology); assay type: in vivo, male WKY rats; settings: for Glomerulosclerosis score / Tubular disorder score, Cortical side / Tubular disorder score, Medullary side: 15 weeks old, score 0 to 4, mean±standard error, n=6
# Experimental: Deoxycorticosterone acetate (DOCA)/sodium chloride-loaded hypertension model was prepared by the following procedure. 6 Week-old male WKY rats (WKY/Izm, SPF grade, produced by Funabashi Farm Co., Ltd.) were subjected to unilateral nephrectomy, diet containing 4% sodium chloride (4% NaCl-containing FR-2, manufactured by Funabashi Farm Co., Ltd.) was given from 7 weeks old by free feeding, and DOCA was administered subcutaneously once a week. DOCA was suspended in a 0.5% carboxymethylcellulose solution (20 mg/mL) and administered in an amount corresponding to 1 mL/kg. The group to which DOCA was not administered was designated as DOCA non-administration group and the group to which DOCA was administered was designated as DOCA administration group.
# At 11 weeks old, some of the animals in the DOCA non-administration group were dissected and the other animals in the DOCA non-administration group were designated as normal group (Group 1). At the same time, some of the animals in the DOCA administration group were also dissected, and the others of the DOCA administration group were divided into the following groups (Groups 2 to 4).
# Group 1: normal group, n=6 animals
# Group 2; control group, n=6 animals
# Group 3; compound (Ia) administration group [compound (Ia) 3 mg/kg], n=6 animals
# Group 4: DOCA administration interruption+compound (Ia) administration group [compound (Ia) 3 mg/kg], n=6 animals
# The dosing schedule of test drugs for each group after 11 weeks is as follows.
# To Group 1, oral administration of a 0.5% methylcellulose solution was continued for 4 weeks. To Group 2, oral administration of 0.5% methylcellulose solution and subcutaneous administration (once a week) of DOCA were continued for 4 weeks. To Group 3, oral administration of compound (Ia) suspended in 0.5% methylcellulose solution (2 mL/kg) and subcutaneous administration (once a week) of DOCA were continued for 4 weeks.
# To Group 4, only oral administration of compound (Ia) suspended in 0.5% methylcellulose solution (2 mL/kg) was continued for 4 weeks.
# At the end of 4 weeks of administration of the test drug or the like (at the age of 15 weeks old), all animals were dissected.
# At 7, 11, 13 and 15 weeks old, 24-hour urine collections were conducted using metabolic cages (2100-R, Watanabe Isolator Systems Co., Ltd.). Daily urinary protein excretion was calculated from the urine protein concentration (measured by BiOLiS 24i premium [Tokyo Boeki Medisys Inc.]) and urine volume.
# At the time of dissection at 11 and 15 weeks old, the kidneys were isolated and weighed, and the kidney weight per body weight was calculated.
# Furthermore, histopathological sections were prepared from a part of the isolated kidneys, and histopathological evaluation (scoring of glomerulosclerosis and tubular disorder) was conducted. For glomerulosclerosis, 30 glomeruli were selected at random for each sample, and the degree of glomerulosclerosis of each sample was quantified on the basis of 5 stages (0 to 4) to determine an average value of 30 values, which was used as a score of the sample (Uehara Y, et al., Hypertens. Res. 1992; 15, pp 17-26). For tubular disorder, for each of the cortical and medullary sides, 10 fields of view were selected for each sample, the degree of tubular disorder was quantified on the basis of 5 stages (0 to 4) to determine the average value of values for each 10 fields of view, which was used as a score of the sample (Uehara Y, et al., Hypertens. Res. 1992; 15, pp 17-26). Results are shown in Table 3 (each numerical value in the table represents the mean±standard error).
# [2] = system: patients with type 2 diabetes mellitus having albumin urine; experiment: Phase II randomized, placebo controlled, double-blind clinical study of compound (Ia) (Example 3); assay type: in vivo, human; settings: for Reduction rate of UACR (geometric mean) from baseline at the end of dosing / Remission rate of UACR: 12 weeks; for Remission rate of UACR: UACR <30 mg/g Cr at 11 and 12 weeks and decreased by 30% or more
# Experimental: A clinical study targeted to patients with type 2 diabetes mellitus having albumin urine was conducted to evaluate the efficacy and safety of the like of compound
# (Ia). This study is a Phase II randomized, placebo controlled, double-blind comparison study. Each of the patients was subjected to a washout period of 4 to 12 weeks followed by treatment comprising administrating placebo or compound (Ia) (0.625 mg, 1.25 mg, 2.5 mg, 5 mg) once a day over a treatment period of 12 weeks.
# 365 Patients in Japan who met the following criteria entered this study, and an efficacy and safety analysis set included 358 cases.
# 1. The patient is with type 2 diabetes mellitus; 2. The patient is 20 years old or more at the time of consent; 3. Urine albumin/creatinine ratio (UACR) is 45 mg/g Cr or more and less than 300 mg/g Cr; 4. Estimated glomerular filtration rate calculated with serum creatinine (eGFRcreat) is 30 mL/min/1.73 m^2 or more; and 5. The patient has been subjected to treatment with an angiotensin-converting enzyme inhibitor or an angiotensin II receptor antagonist (and optionally a calcium antagonist) since at least 3 months before the start of treatment.
# The patient was followed up for approximately 6 weeks after the end of dosing, and evaluated for change in UACR from baseline, remission rate of UACR and numerical value of eGFR as well as safety.
# Remission rate of UACR (%)=(number of subjects in remission÷number of all subjects to be analyzed)×100
# [3] = Group 3: 3 mg/kg oral for 4 weeks with continued DOCA
# [4] = Group 4: DOCA administration interruption + 3 mg/kg oral for 4 weeks
structure (smiles),measurement,setting,value
"Cc1c(C(=O)Nc2ccc(S(C)(=O)=O)cc2)cn(CCO)c1-c1ccccc1C(F)(F)F (atropisomer, axis not shown) [compound (Ia), (S)-1-(2-hydroxyethyl)-4-methyl-N-[4-(methylsulfonyl)phenyl]-5-[2-(trifluoromethyl)phenyl]-1H-pyrrole-3-carboxamide]","Effect on renal disorders (proteinuria, renal hypertrophy, glomerulosclerosis and tubular disorder)","[1]; 3 mg/kg oral for 4 weeks, disease model animals",excellent ameliorative effect
same,Glomerulosclerosis score,[1]; [3],0.29 ± 0.05
same,"Tubular disorder score, Cortical side",[1]; [3],1.02 ± 0.07
same,"Tubular disorder score, Medullary side",[1]; [3],1.73 ± 0.04
same,Effect on renal disorders versus normal group,[1]; [4],ameliorated almost to the normal group level
same,Glomerulosclerosis score,[1]; [4],0.20 ± 0.04
same,"Tubular disorder score, Cortical side",[1]; [4],0.67 ± 0.06
same,"Tubular disorder score, Medullary side",[1]; [4],1.42 ± 0.11
same,Reduction rate of UACR (geometric mean) from baseline at the end of dosing,[2]; 0.625 mg once a day,21%
same,Remission rate of UACR,[2]; 0.625 mg once a day,7.5%
same,Reduction rate of UACR (geometric mean) from baseline at the end of dosing,[2]; 1.25 mg once a day,37%
same,Remission rate of UACR,[2]; 1.25 mg once a day,12.3%
same,Reduction rate of UACR (geometric mean) from baseline at the end of dosing,[2]; 2.5 mg once a day,50%
same,Remission rate of UACR,[2]; 2.5 mg once a day,21.2%
same,Reduction rate of UACR (geometric mean) from baseline at the end of dosing,[2]; 5 mg once a day,56%
same,Remission rate of UACR,[2]; 5 mg once a day,21.1%
same,Therapeutic effect (UACR reducing effect and increase in remission rate),[2]; patients without sufficient effect on ACE inhibitor or angiotensin II receptor antagonist (optionally calcium antagonist),excellent therapeutic effect
